The values below are quoted from earlier work in patent US20040110828A1, “Tetrahydrocannabinol compositions and methods of manufacture and use thereof” (priority 2002, published 2004).

With `CCCCCc1cc(O)c2c(c1)OC(C)(C)[C@@H]1CCC(C)=C[C@@H]21` [Delta 9-THC, Delta 9-tetrahydrocannabinol], the “half-life of blood level” value (IV administration, slow phase after the initial distribution (first 30 minutes)) was no less than 19 h. Further, where the note is “one week after an IV injection of a single dose”, the “compound and its metabolites remaining in the body” value was 25-30%.
